Consider two molecules from patent US20050070500A1, “Method of modulating release of saccharides and uses thereof” (priority 2001, published 2005).

Molecules are shown by their SMILES. Where two headings read alike, the source gives them in different places.

For series [1] the following is noted: subcutaneous; patient not affected by ACTH or Prednisone; several weeks of treatment; cited from earlier work.
Series [2] can be described thus: in vivo. The note with it: male, beagle, dog. The source says:
This study was undertaken to determine the safety of Products X and Y, and to determine the pharmacokinetic profiles of Products X, Y, and a commercially available oral glucosamine formulation (Glucosamine) following a single oral and intravenous administration to beagle dogs. The pharmacokinetic profiles were examined for indications of sustained or slow release of glucosamine by Products X and Y.
A total of nine (9) male Beagle dogs were used during this study. The animals were assigned to three treatment groups of 3 animals/group. Group 1 received low dose Products X, Y and Glucosamine by oral administration on Days 1, 8 and 15, respectively. Group 2 animals received high dose Products X and Y by oral administration on Days 1 and 8, respectively, and Group 3 animals received low dose Products X and Y by intravenous injection on Days 1 and 8, respectively. Low and high dose animals were administered nominal dose levels of 21.4 mg/kg and 214 mg/kg, respectively. These levels approximated 1× and 10× the standard daily oral glucosamine consumption (1500 mg) for an average human (70 kg standard body weight). The commercial glucosamine was assumed to contain 100% active ingredient.
The following parameters were recorded throughout the study: mortality, clinical signs, body weight and clinical pathology (hematology, coagulation and clinical chemistry). Serial blood samples were collected from all animals for pharmacokinetic profiling following each dosing.
Samples were collected via the jugular vein, at: 0 (pre-dose), 15, 30, 60, 120 minutes post-dose. A 5 minute post-dose sample was included for Group 3.

The conditions of series [3]: dogs, cited from earlier work.
For series [4] the following is noted: humans, cited from earlier work.

Consider `Cl.N[C@H]1C(O)O[C@H](CO)[C@@H](O)[C@@H]1O` (stereo partly drawn) [D-glucosamine-HCl], for which, in series [1], the “symptoms of Crohn's Disease” value is reported as “symptoms stopped”.

Take `N[C@H]1C(O)O[C@H](CO)[C@@H](O)[C@@H]1O` (stereo partly shown) [Glucosamine, glucosamine]: the “time of peak serum glucosamine level post-dose” value in series [2] was found to be 60 min. The molecule also registered an AUC in series [2] (po, 21.4 mg/kg) of 1650 ng·h/mL. Besides, the concentration at 120 minutes in series [2] (po, 21.4 mg/kg) was 533 ± 188 ng/mL. Further, in series [2] (po, 21.4 mg/kg), the “ratio of glucosamine delivered into the serum (oral glucosamine = 100)” value was 100. Besides, the “group mean serum glucosamine level at 120 minutes post-dose” value in series [2] (po, 21.4 mg/kg, 120 minutes) came out at 533 ng/mL. The “glucosamine found in urine” value in series [3] (after 144 hours) is “about 10%”; in series [4] (after 144 hours), about 11%. Moreover, the values for the gastrointestinal absorption result in series [3] and in series [4] were “about 87%” and about 90%, respectively.
